The values below come from ChEMBL document CHEMBL1128885, “Resolution and comparative anti-HIV evaluation of the enantiomers of calanolides A and B” (Bioorg Med Chem Lett, 1995).

The test system of experiment [1] is Human immunodeficiency virus 1. Kind of experiment: Effective concentration required for in vitro inhibitory activity against HIV-1; IA is Inactive. Format: functional, organism-based.
For experiment [2], the system named is Human immunodeficiency virus 1. The experiment in a line: Effective concentration required for in vitro inhibitory activity against HIV-1. The experiment is classed as functional, organism-based.

Usually EC50 stands for the concentration at which the effect is half-maximal. High values mean a need for much substance, low ones an effect from little substance. As for `CCCc1cc(=O)oc2c3c(c4c(c12)OC(C)(C)C=C4)O[C@@H](C)[C@H](C)[C@H]3O` [(-)-CALANOLIDE A], in experiment [1], the EC50 entry is “Not Active”.
The compound `CCCc1cc(=O)oc2c3c(c4c(c12)OC(C)(C)C=C4)O[C@@H](C)[C@H](C)[C@@H]3O` [COSTATOLIDE] displayed an EC50 in experiment [2] of 300 nM.
Still for that read-out and setting: for `CCCc1cc(=O)oc2c3c(c4c(c12)OC(C)(C)C=C4)O[C@H](C)[C@@H](C)[C@@H]3O` [CALANOLIDE A] the value was 200 nM.
With `CCCc1cc(=O)oc2c3c(c4c(c12)OC(C)(C)C=C4)O[C@H](C)[C@@H](C)[C@H]3O` [(+)-CALANOLIDE B], the EC50 result in experiment [1] is “Not Active”.
